Results published in patent publication US20180256673A1, “METHODS FOR TREATING FUNGAL INFECTIONS” (priority 2015, published 2018).
Converted amounts (≈) assume the structure as drawn. Starred links: 1 amine or outer side, 2 acyl side, 3 side chain; linkers in the order of their positions; H or OH if unused. Positions of bridges follow the written chain, without caps; N, C: chain ends. Non-standard residues stand in square brackets, D forms with d. Residues, ends and D or L forms follow the SMILES beside them. *: point of attachment. pTerphenylCO(4''-OnC5H11) = CCCCCOc1ccc(-c2ccc(-c3ccc(C(=O)*)cc3)cc2)cc1; Orn(4R-OH,5R-OH) = O=C([C@H](C[C@@H](O)[C@@H](O)N[*:3])N[*:1])[*:2]; hTyr(3S-OH,4S-OH) = N[C@H](C(=O)O)[C@H](O)[C@@H](O)c1ccc(O)cc1; Pro(3S-OH,4S-Me) = C[C@H]1CN[C@H](C(=O)O)[C@H]1O; Hyp = O=C(O)[C@@H]1C[C@@H](O)CN1

How the values were obtained:
[1] = system: C. albicans vaginal isolates; assay: Susceptibility testing of VVC clinical isolates at pH 7 and 4 (CLSI M27-A3); assay type: cell-based, Candida albicans; conditions: Candida albicans
[2] = system: C. glabrata ATCC 90030, ATCC 2001; assay: microbe, parasite or virus in culture; assay type: cell-based, Candida glabrata; conditions: for MIC fold-shift: WT to P20; for MIC: Nakaseomyces glabratus
[3] = system: Cryptococcus neoformans var. grubii; assay: Broth microdilution of invasive fungal isolates (CLSI M27-A3/M38-A2); assay type: cell-based
[4] = system: C. glabrata ATCC 90030, ATCC 2001; assay: Broth microdilution MIC (CLSI), Examples 3 and 4; conditions: Nakaseomyces glabratus
Protocol: Antifungal susceptibility testing. Candida strains were cultured aerobically at 35° C. on SDA plates or in RPMI 1640 broth (pH 7.0). […] MIC assays were performed in triplicate.

Candida krusei = assay: Broth microdilution of invasive fungal isolates (CLSI M27-A3/M38-A2); assay type: cell-based; conditions: 16 isolates

## CCCCCOc1ccc(-c2ccc(-c3ccc(C(=O)N[C@H]4C[C@@H](O)[C@@H](O)NC(=O)[C@@H]5[C@@H](O)[C@@H](C)CN5C(=O)[C@H]([C@@H](C)O)NC(=O)[C@H]([C@H](O)[C@@H](O)c5ccc(O)cc5)NC(=O)[C@@H]5C[C@@H](O)CN5C(=O)[C@H]([C@@H](C)O)NC4=O)cc3)cc2)cc1 [ANID, anidulafungin] ({pTerphenylCO(4''-OnC5H11)}-[Orn(4R-OH,5R-OH)]T[Hyp][hTyr(3S-OH,4S-OH)]T[Pro(3S-OH,4S-Me)]; lactam 1-C)
[1]; 24 h, pH 4
  MIC90: 0.03 µg/mL (≈ 0.0263 µM)
[1]; 24 h, pH 7
  MIC90: 0.008 µg/mL (≈ 0.00702 µM)
[1]; 48 h, pH 4
  MIC90: 0.06 µg/mL (≈ 0.0526 µM)
[1]; 48 h, pH 4, fluconazole-resistant isolate 1, pH 4
  MIC: 0.03 µg/mL (≈ 0.0263 µM)
[1]; 48 h, pH 4, fluconazole-resistant isolate 2, pH 4
  MIC: 0.03 µg/mL (≈ 0.0263 µM)
[1]; 48 h, pH 4, fluconazole-resistant isolate 3, pH 4
  MIC: 0.03 µg/mL (≈ 0.0263 µM)
[1]; 48 h, pH 4, fluconazole-resistant isolate 4, pH 4
  MIC: 0.06 µg/mL (≈ 0.0526 µM)
[1]; 48 h, pH 4, fluconazole-resistant isolate 5, pH 4
  MIC: 0.125 µg/mL (≈ 0.11 µM)
[1]; 48 h, pH 4, fluconazole-resistant isolate 6, pH 4
  MIC: 0.06 µg/mL (≈ 0.0526 µM)
[1]; 48 h, pH 4, fluconazole-resistant isolate 7, pH 4
  MIC: 0.06 µg/mL (≈ 0.0526 µM)
[1]; 48 h, pH 4, fluconazole-resistant isolate 8, pH 4
  MIC: 0.06 µg/mL (≈ 0.0526 µM)
[1]; 48 h, pH 4, fluconazole-resistant isolate 9, pH 4
  MIC: 0.25 µg/mL (≈ 0.219 µM)
[1]; 48 h, pH 4, fluconazole-resistant isolate 10, pH 4
  MIC: 0.06 µg/mL (≈ 0.0526 µM)
[1]; 48 h, pH 7
  MIC90: 0.03 µg/mL (≈ 0.0263 µM)
[1]; 48 h, pH 7, fluconazole-resistant isolate 1, pH 7
  MIC: 0.008 µg/mL (≈ 0.00702 µM)
[1]; 48 h, pH 7, fluconazole-resistant isolate 2, pH 7
  MIC: 0.03 µg/mL (≈ 0.0263 µM)
[1]; 48 h, pH 7, fluconazole-resistant isolate 3, pH 7
  MIC: 0.008 µg/mL (≈ 0.00702 µM)
[1]; 48 h, pH 7, fluconazole-resistant isolate 4, pH 7
  MIC: 0.008 µg/mL (≈ 0.00702 µM)
[1]; 48 h, pH 7, fluconazole-resistant isolate 5, pH 7
  MIC: 0.016 µg/mL (≈ 0.014 µM)
[1]; 48 h, pH 7, fluconazole-resistant isolate 6, pH 7
  MIC: 0.008 µg/mL (≈ 0.00702 µM)
[1]; 48 h, pH 7, fluconazole-resistant isolate 7, pH 7
  MIC: 0.008 µg/mL (≈ 0.00702 µM)
[1]; 48 h, pH 7, fluconazole-resistant isolate 8, pH 7
  MIC: 0.008 µg/mL (≈ 0.00702 µM)
[1]; 48 h, pH 7, fluconazole-resistant isolate 9, pH 7
  MIC: 0.125 µg/mL (≈ 0.11 µM)
[1]; 48 h, pH 7, fluconazole-resistant isolate 10, pH 7
  MIC: 0.008 µg/mL (≈ 0.00702 µM)
[2]; ATCC 2001
  MIC fold-shift: 64
[2]; ATCC 90030
  MIC fold-shift: 64
[2]; 48 h, ATCC 90030 P20-1, selecting drug ANID, Fks2 HS1 D666I, 48 h read
  MIC: 4 µg/mL (≈ 3.51 µM)
[2]; 48 h, ATCC 90030 P20-1, selecting drug CAS, Fks2 HS1 F659I D666Y, 48 h read
  MIC: 8 µg/mL (≈ 7.02 µM)
[2]; ATCC 2001 P20-2, selecting drug ANID, Fks1 HS1 D632Y
  MIC: 4 µg/mL (≈ 3.51 µM)
[2]; ATCC 2001 P20-2, selecting drug CAS
  MIC: 2 µg/mL (≈ 1.75 µM)
[2]; ATCC 2001 P20-2, selecting drug CMP1
  MIC: 1 µg/mL (≈ 0.877 µM)
[2]; ATCC 90030 P20-2, selecting drug CMP1
  MIC: 1 µg/mL (≈ 0.877 µM)
[2]; read-out: MIC P20, ATCC 2001, total population after 20 passages with the selecting drug, MIC of selecting drug
  MIC: 4 µg/mL
[2]; read-out: MIC P20, ATCC 90030, total population after 20 passages with the selecting drug, MIC of selecting drug
  MIC: 4 µg/mL
[3]; 19 isolates
  Cumulative % of isolates inhibited at MIC >8 μg/mL: (100.0) %
  Number of isolates inhibited at MIC >8 μg/mL: 19
[3]; Cryptococcus neoformans
  MIC50: 8 µg/mL (≈ 7.02 µM)
  MIC90: 8 µg/mL (≈ 7.02 µM)
[4]; ATCC2001|ATCC90030, 24 h, read-out: Broth MIC, ATCC 2001 wild-type, 24 h, ~50% inhibition
  MIC: 0.06 µg/mL (≈ 0.0526 µM)
[4]; ATCC2001|ATCC90030, 24 h, read-out: Broth MIC, ATCC 90030 wild-type, 24 h, ~50% inhibition
  MIC: 0.06 µg/mL (≈ 0.0526 µM)
[4]; ATCC2001|ATCC90030, ATCC 2001 spontaneous mutant, Fks2 HS1 D666N
  MIC: 0.5 µg/mL (≈ 0.438 µM)
[4]; ATCC2001|ATCC90030, ATCC 2001 spontaneous mutant, Fks2 HS1 D666Y
  MIC: 0.5 µg/mL (≈ 0.438 µM)
[4]; ATCC2001|ATCC90030, ATCC 2001 spontaneous mutant, Fks2 HS1 R665G
  MIC: 0.5 µg/mL (≈ 0.438 µM)
[4]; ATCC2001|ATCC90030, ATCC 2001 spontaneous mutant, Fks2 HS1 S663F
  MIC: 1 µg/mL (≈ 0.877 µM)
[4]; ATCC2001|ATCC90030, ATCC 2001 spontaneous mutant, Fks2 HS1 ΔF659
  MIC: 4 µg/mL (≈ 3.51 µM)
[4]; ATCC2001|ATCC90030, ATCC 2001 spontaneous mutant, Fks2 HS2 R1378S
  MIC: 0.25 µg/mL (≈ 0.219 µM)
[4]; ATCC2001|ATCC90030, ATCC 90030 spontaneous mutant, Fks2 HS1 D666H
  MIC: 1 µg/mL (≈ 0.877 µM)
[4]; ATCC2001|ATCC90030, ATCC 90030 spontaneous mutant, Fks2 HS1 ΔF659
  MIC: 2 µg/mL (≈ 1.75 µM)
Candida krusei
  Cumulative % of isolates inhibited at MIC 0.015 μg/mL: 6.2%
  Cumulative % of isolates inhibited at MIC 0.03 μg/mL: (43.8) %
  Cumulative % of isolates inhibited at MIC 0.06 μg/mL: (100.0) %
  Number of isolates inhibited at MIC 0.015 μg/mL: 1
  Number of isolates inhibited at MIC 0.03 μg/mL: 6
  Number of isolates inhibited at MIC 0.06 μg/mL: 9
